{"source": "patent US5747535A", "about": "“Selective thrombin inhibitors” (priority 1995, dated 1998)", "key": {"bovine thrombin": {"target": "bovine thrombin (Bos taurus, UniProt P00735)", "experiment": "biochemical", "excerpt": "The thrombin inhibitory effect of the compound of formula (I) according to the present invention can be identified by determination of a dissociation constant Ki represented by the following equation according to the known method described in literature [see, Methods in enzymology V. 80,p341-361;Biochemistry 27,p2144-2151 (1988)].\nThe dissociation constant Ki denotes the degree of dissociation of the enzyme-thrombin inhibitor complex. […] Such dissociation constant can be determined by reacting thrombin with a certain substrate which develops a color when it is hydrolyzed by the action of thrombin, and then measuring the degree of color development as a function of time by means of spectrophotometry.\nChromozym TH is hydrolyzed by thrombin to produce yellow para-nitroaniline. Accordingly, the amount of yellow para-nitroaniline thus produced can be measured as the change of absorbance in the course of time to determine the thrombin inhibitory activity of the compound according to the present invention. That is, the enzyme activity can be determined from the rate of change in absorbance and then can be directly connected with the ability of the thrombin inhibitor to inhibit the enzyme activity (see, Methods in Enzymology, V. 80,p341-361,Biochemistry 27, p2144-2151, 1988).\nThe ability of the compound according to the present invention to inhibit the thrombin activity was determined as described in the following.\n1160 μl of 0.1M tris buffered solution (pH 7.8) containing 150 mM NaCl and 0.1% PEG 8000 (polyethylene glycol, molecular weight about 8,000) was added to a 1.5 ml cuvette. Chromozym TH was dissolved in dimethylsulfoxide(DMSO) in the concentration of 10mM and the resulting solution was diluted with the said tris buffered solution to the concentration of 0.1 mM, which was then used as the substrate solution. 225 μl of 0.1 mM substrate solution thus prepared was added to the cuvette. The inhibitor solution was prepared by dissolving the thrombin inhibitor compound according to the present invention in dimethylsulfoxide in the concentration of 10 mg/ml and then diluting the resulting solution with the said tris buffered solution to the concentration of 0.1 mg/ml, 0.01 mg/ml, 0.001 mg/ml and 0.0001 mg/ml. The resulting inhibitor solution was taken in an amount corresponding to 0 to 10 μg as the inhibitor and then diluted with tris buffered solution to make the total volume of 100 μl which was added to the cuvette.\n15 μl of bovine thrombin solution dissolved in above tris buffered solution in the concentration of 0.1 mg/ml was added to the cuvette to initiate the enzyme hydrolysis reaction. The amount of para-nitroaniline produced for 2 minutes from the moment the enzyme is added was monitored by measuring the absorbance at 381 nm. The continuous spectrum of absorbance to reaction time was depicted. The same experiments were conducted for various concentration of the inhibitor to obtain the continuous spectrum.\nIn each spectrum, the initial velocity Vi was obtained from the slope within initial 30 seconds of the reaction time and then a graph for the reciprocal value of initial velocity(1/Vi) to the inhibitor concentration was depicted. From the graph, the primary equation satisfying the points depicted thereon was obtained and then the value Ki was calculated from the x intercept of the primary equation using the enzyme reaction equation.\nThe velocity constant Ks was obtained using the same solution in the same concentration as in determination of the value Ki but using the following experimental procedure."}, "trypsin": {"target": "T1, trypsin (Bos taurus, UniProt P00760)", "T1 sequence (P00760 24-246)": "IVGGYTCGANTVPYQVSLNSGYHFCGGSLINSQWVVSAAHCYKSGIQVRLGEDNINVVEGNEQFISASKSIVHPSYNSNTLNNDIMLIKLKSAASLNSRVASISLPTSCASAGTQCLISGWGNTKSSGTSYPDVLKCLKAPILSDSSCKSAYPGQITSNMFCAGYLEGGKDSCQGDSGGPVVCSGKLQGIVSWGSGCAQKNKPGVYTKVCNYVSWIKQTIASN", "experiment": "biochemical", "assay_type": "biochemical", "settings": "20 μM substrate; read-out: Inhibitory activity for trypsin, Ki", "method": "To identify the selectivity for thrombin over trypsin of the compound of the present invention, the inhibitory activity for trypsin of the compound of formula (I) is measured as Ki value according to the same method as the above method for determination of thrombin inhibitory activity, and then the ratio of the activity for trypsin to the activity for thrombin is calculated. In this case, the procedure for determination of inhibitory activity for trypsin is substantially identical to that for thrombin, except that N-benzoyl-Val-Gly-Arg para-nitroanilide hydrochloride is used as the substrate.\nAs the substrate 20μM solution of N-benzoyl-Val-Gly-Arg-p-nitroanilide hydrochloride was used, and the inhibitor was used in various concnetrations within the range of […]. In addition, trypsin was dissolved in 0.1N HCl, adjusted to the concentration of 45 μg/ml with the said tris buffered solution just before the experiment, and then used in an amount of 40μl. As in the experiment for thrombin, a total volume of the reaction solution was 1.5 ml and the remaining procedure was conducted in the same manner."}}}
{"compound": "N=C(NN)c1ccc(C[C@H](NS(=O)(=O)c2ccc3ccccc3c2)C(=O)N(CCOCc2ccccc2)C2CCCC2)cc1", "note": "[Example 4, (S)-N-cyclopentyl-N-(2-benzyloxyethyl)-3-(4-amidrazonophenyl)-2-(2-naphthylsulfonylamino)propionamide]", "values": [{"measurement": "Ki", "setting": "bovine thrombin", "value": 345, "unit": "nM"}]}
{"compound": "CCN(C(=O)[C@H](Cc1ccc(C(=N)NN)cc1)NS(=O)(=O)c1ccc2ccccc2c1)C1CCCC1", "note": "[Example 6, (S)-N-cyclopentyl-N-ethyl-3-(4-amidrazonophenyl)-2-(2-naphthylsulfonylamino)propionamide]", "values": [{"measurement": "Ki", "setting": "bovine thrombin", "value": 4.35, "unit": "nM"}]}
{"compound": "CNC(=N)c1ccc(C[C@H](NS(=O)(=O)c2ccc3ccccc3c2)C(=O)N(C)C2CCCC2)cc1", "note": "[Example 7, (S)-N-cyclopentyl-N-methyl-3-[4-(methylamidino)phenyl]-2-(2-naphthylsulfonylamino)propionamide]", "values": [{"measurement": "Ki", "setting": "bovine thrombin", "value": 13.8, "unit": "nM"}, {"measurement": "Ki", "setting": "trypsin", "value": 363000, "unit": "nM"}]}
{"compound": "COc1cc(C)c(S(=O)(=O)N[C@@H](Cc2ccc(C(=N)NN)cc2)C(=O)N(C)C2CCCC2)c(C)c1C", "note": "[Example 9, (S)-N-cyclopentyl-N-methyl-3-(4-amidrazonophenyl)-2-[(4-methoxy-2,3,6-trimethylbenzene)sulfonylamino]propionamide]", "values": [{"measurement": "Ki", "setting": "bovine thrombin", "value": 227, "unit": "nM"}]}
{"compound": "CN(C)C(=O)[C@H](Cc1ccc(C(=N)NN)cc1)NS(=O)(=O)c1ccc2ccccc2c1", "note": "[Example 13, (S)-N,N-dimethyl-3-(4-amidrazonophenyl)-2-(2-naphthylsulfonylamino)propionamide]", "values": [{"measurement": "Ki", "setting": "bovine thrombin", "value": 216, "unit": "nM"}]}
{"compound": "CN(C(=O)[C@H](Cc1ccc(C(=N)NN)cc1)NC(=O)Cc1cccc2ccccc12)C1CCCC1", "note": "[Example 17, (S)-3-[4-(amidrazono)-phenyl]-N-cyclopentyl-N-methyl-2-(2-naphthalen-1-yl-acetylamino)-propionamide]", "values": [{"measurement": "Ki", "setting": "bovine thrombin", "value": 16, "unit": "nM"}]}
{"compound": "CN(C)c1cccc2c(S(=O)(=O)N[C@@H](Cc3ccc(C(=N)NN)cc3)C(=O)N(C)C3CCCC3)cccc12", "note": "[Example 18, (S)-3-[4-(amidrazono)-phenyl]-N-cyclopentyl-N-methyl-2-(5-dimethylamino-naphthalene-1-sulfonylamino)-propionamide]", "values": [{"measurement": "Ki", "setting": "bovine thrombin", "value": 11, "unit": "nM"}, {"measurement": "Ki", "setting": "trypsin", "value": 3980, "unit": "nM"}]}
{"compound": "CN(C(=O)[C@H](Cc1ccc(C(=N)NN)cc1)NS(=O)(=O)c1cccc2ccccc12)C1CCCC1", "note": "[Example 22, (S)-3-[4-(amidrazono)-phenyl]-N-cyclopentyl-N-methyl-2-(naphthalene-1-sulfonylamino)-propionamide]", "values": [{"measurement": "Ki", "setting": "bovine thrombin", "value": 17, "unit": "nM"}]}
{"compound": "CN(C(=O)[C@H](Cc1ccc(C(=N)NN)cc1)NC(=O)COc1ccc2ccccc2c1)C1CCCC1", "note": "[Example 24, (S)-3-[4-(amidrazono)-phenyl]-N-cyclopentyl-N-methyl-2-[2-(naphthalene-2-yl-oxy)acetylamino]-propionamide]", "values": [{"measurement": "Ki", "setting": "bovine thrombin", "value": 20100, "unit": "nM"}]}
{"compound": "COC(=O)CN(C)C(=O)[C@H](Cc1ccc(C(=N)NN)cc1)NS(=O)(=O)c1ccc2ccccc2c1", "note": "[Example 25, {[3-(4-amidrazono-phenyl)-(S)-2-(naphthalene-2-sulfonylamino)-propionyl]-methyl-amino}-acetic acid methyl ester]", "values": [{"measurement": "Ki", "setting": "bovine thrombin", "value": 259, "unit": "nM"}]}
{"compound": "COC(=O)[C@H](C)N(C)C(=O)[C@H](Cc1ccc(C(=N)NN)cc1)NS(=O)(=O)c1ccc2ccccc2c1", "note": "[Example 27, (S)-2-{[3-(4-amidrazono-phenyl)-(S)-2-(naphthalene-2-sulfonylamino)-propionyl]-methyl-amino}propionic acid methyl ester]", "values": [{"measurement": "Ki", "setting": "bovine thrombin", "value": 65, "unit": "nM"}]}
{"compound": "COC(=O)[C@@H](C)N(C)C(=O)[C@H](Cc1ccc(C(=N)NN)cc1)NS(=O)(=O)c1ccc2ccccc2c1", "note": "[Example 29, (R)-2-{[3-(4-amidrazono-phenyl)-(S)-2-(naphthalene-2-sulfonylamino)-propionyl]-methyl-amino}-propionic acid methyl ester]", "values": [{"measurement": "Ki", "setting": "bovine thrombin", "value": 89, "unit": "nM"}]}
{"compound": "COC(=O)[C@@H](C(C)C)N(C)C(=O)[C@H](Cc1ccc(C(=N)NN)cc1)NS(=O)(=O)c1ccc2ccccc2c1", "note": "[Example 31, (R)-2-{[3-(4-amidrazono-phenyl)-(S)-2-(naphthalene-2-sulfonylamino)-propionyl]-methyl-amino}-3-methyl-butyric acid methyl ester]", "values": [{"measurement": "Ki", "setting": "bovine thrombin", "value": 165, "unit": "nM"}]}
{"compound": "COC(=O)CCN(C)C(=O)[C@H](Cc1ccc(C(=N)NN)cc1)NS(=O)(=O)c1ccc2ccccc2c1", "note": "[Example 33, 3-{[3-(4-amidrazono-phenyl)-(S)-2-(naphthalene-2-sulfonylamino)-propionyl]-methylamino}-propionic acid methyl ester]", "values": [{"measurement": "Ki", "setting": "bovine thrombin", "value": 35, "unit": "nM"}]}
{"compound": "COC(=O)CCCN(C)C(=O)[C@H](Cc1ccc(C(=N)NN)cc1)NS(=O)(=O)c1ccc2ccccc2c1", "note": "[Example 35, 4-{[3-(4-amidrazono-phenyl)-(S)-2-(naphthalene-2-sulfonylamino)-propionyl]-methyl-amino}-butyric acid methyl ester]", "values": [{"measurement": "Ki", "setting": "bovine thrombin", "value": 612, "unit": "nM"}]}
{"compound": "CCCCN(CC(=O)OC)C(=O)[C@H](Cc1ccc(C(=N)NN)cc1)NS(=O)(=O)c1ccc2ccccc2c1", "note": "[Example 39, {[3-(4-amidrazono-phenyl)-(S)-2-(naphthalene-2-sulfonylamino)-propionyl]-butylamino}-acetic acid methyl ester]", "values": [{"measurement": "Ki", "setting": "bovine thrombin", "value": 165, "unit": "nM"}]}
{"compound": "CCOC(=O)C1CCCC1N(C)C(=O)[C@H](Cc1ccc(C(=N)NN)cc1)NS(=O)(=O)c1ccc2ccccc2c1", "note": "(stereo partly drawn) [Example 45, 2-{[3-(4-amidrazono-phenyl)-(S)-2-(naphthalene-2-sulfonylamino)-propionyl]-methylamino}-cyclopentane carboxylic acid ethyl ester]", "values": [{"measurement": "Ki", "setting": "bovine thrombin", "value": 346, "unit": "nM"}]}
{"compound": "CN(C(=O)[C@H](Cc1ccc(C(=N)NN)cc1)NS(=O)(=O)c1ccc2ccccc2c1)C1CCCC1C(=O)O", "note": "(stereo partly drawn) [Example 46, 2-{[3-(4-amidrazono-phenyl)-(S)-2-(naphthalene-2-sulfonylamino)-propionyl]-methylamino}-cyclopentane carboxylic acid]", "values": [{"measurement": "Ki", "setting": "bovine thrombin", "value": 880, "unit": "nM"}]}
{"compound": "COC(=O)[C@H](C(C)C)N(C)C(=O)[C@H](Cc1ccc(C(=N)NN)cc1)NS(=O)(=O)c1ccc2ccccc2c1", "note": "[Example 47, (S)-2-{[3-(4-amidrazono-phenyl)-(S)-2-(naphthalene-2-sulfonylamino)-propionyl]-methylamino}-3-methyl-butyric acid methyl ester]", "values": [{"measurement": "Ki", "setting": "bovine thrombin", "value": 665, "unit": "nM"}]}
{"compound": "COC(=O)[C@H]1CCCCN1C(=O)[C@H](Cc1ccc(C(=N)NN)cc1)NS(=O)(=O)c1ccc2ccccc2c1", "note": "[Example 48, 1-[3-(4-amidrazono-phenyl)-(S)-2-(naphthalene-2-sulfonylamino)-propionyl]-piperidine-(R)-2-carboxylic acid methyl ester]", "values": [{"measurement": "Ki", "setting": "bovine thrombin", "value": 13, "unit": "nM"}]}
{"compound": "N=C(NN)c1ccc(C[C@H](NS(=O)(=O)c2ccc3ccccc3c2)C(=O)N2CCCC[C@@H]2C(=O)O)cc1", "note": "[Example 49, 1-[3-(4-amidrazono-phenyl)-(S)-2-(naphthalene-2-sulfonylamino)-propionyl]-piperidine-(R)-2-carboxylic acid]", "values": [{"measurement": "Ki", "setting": "bovine thrombin", "value": 406, "unit": "nM"}]}
{"compound": "CCOC(=O)N1CCN(C(=O)[C@H](Cc2ccc(C(=N)NN)cc2)NS(=O)(=O)c2ccc3ccccc3c2)CC1", "note": "[Example 51, (S)-naphthalene-2-sulfonic acid [1-(4-amidrazono)benzyl-2-oxo-2-(4-ethoxycarbonyl-piperazinyl)-ethyl]amide]", "values": [{"measurement": "Ki", "setting": "bovine thrombin", "value": 3300, "unit": "nM"}]}
{"compound": "N=C(NN)c1ccc(C[C@H](NS(=O)(=O)c2ccc3ccccc3c2)C(=O)N2CCN(C=O)CC2)cc1", "note": "[Example 52, (S)-naphthalene-2-sulfonic acid [1-(4-amidrazono)benzyl-2-(4-formyl-piperazinyl)-2-oxoethyl]amide]", "values": [{"measurement": "Ki", "setting": "bovine thrombin", "value": 50, "unit": "nM"}]}
{"compound": "CCN1CCN(C(=O)[C@H](Cc2ccc(C(=N)NN)cc2)NS(=O)(=O)c2ccc3ccccc3c2)CC1", "note": "[Example 53, (S)-naphthalene-2-sulfonic acid [1-(4-amidrazono)benzyl-2-(4-ethyl-piperazinyl)-2-oxoethyl]amide]", "values": [{"measurement": "Ki", "setting": "bovine thrombin", "value": 530, "unit": "nM"}]}
{"compound": "N=C(NN)c1ccc(C[C@H](NS(=O)(=O)c2ccc3ccccc3c2)C(=O)N2CCN(c3ccccc3)CC2)cc1", "note": "[Example 54, (S)-naphthalene-2-sulfonic acid [1-(4-amidrazono)benzyl-2-oxo-2-(4-phenyl-piperazinyl)-ethyl]amide]", "values": [{"measurement": "Ki", "setting": "bovine thrombin", "value": 5380, "unit": "nM"}]}
{"compound": "N=C(NN)c1ccc(C[C@H](NS(=O)(=O)c2ccc3ccccc3c2)C(=O)N2CCN(c3cccc(C(F)(F)F)c3)CC2)cc1", "note": "[Example 55, (S)-naphthalene-2-sulfonic acid [1-(4-amidrazono)-benzyl-2-oxo-2-[-4-(3-trifluoromethyl-phenyl)-piperazinyl]-ethyl]-amide]", "values": [{"measurement": "Ki", "setting": "bovine thrombin", "value": 10000, "unit": "nM"}]}
{"compound": "CC(=O)N1CCN(C(=O)[C@H](Cc2ccc(C(=N)NN)cc2)NS(=O)(=O)c2ccc3ccccc3c2)CC1", "note": "[Example 56, (S)-naphthalene-2-sulfonic acid [2-(4-acetyl-piperazinyl)-1-(4-amidrazono)benzyl-2-oxoethyl]amide]", "values": [{"measurement": "Ki", "setting": "bovine thrombin", "value": 280, "unit": "nM"}]}
{"compound": "N=C(NN)c1ccc(C[C@H](NS(=O)(=O)c2ccc3ccccc3c2)C(=O)N2CCN(CCO)CC2)cc1", "note": "[Example 57, (S)-naphthalene-2-sulfonic acid [1-(4-amidrazono)benzyl-2-oxo-2-[4-(2-hydroxyethyl)-piperazinyl]-ethyl]amide]", "values": [{"measurement": "Ki", "setting": "bovine thrombin", "value": 88, "unit": "nM"}]}
{"compound": "CCOc1ccccc1N1CCN(C(=O)[C@H](Cc2ccc(C(=N)NN)cc2)NS(=O)(=O)c2ccc3ccccc3c2)CC1", "note": "[Example 58, (S)-naphthalene-2-sulfonic acid [1-(4-amidrazono)benzyl-2-oxo-2-[4-(2-ethoxyphenyl)-piperazinyl]-ethyl]amide]", "values": [{"measurement": "Ki", "setting": "bovine thrombin", "value": 9130, "unit": "nM"}]}
